Assay [1] relates to IL-2 secretion by human effector memory T cells (TEM). Description: Effector memory T cells IL-2 release assay (CD3/CD28 stimulation, HTRF IL-2 detection). Format: cell-based. The following applies: Homo sapiens, T-cell, 24 h. In outline:
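Human effector memory T cells from healthy-donor buffy coats were exposed in triplicate to ten semi-log doses of compound in 0.1% DMSO. The cells were stimulated and incubated 24 h at 37 °C. Secreted IL-2 in the supernatant was measured by HTRF.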
(In general: Time-resolved FRET reads energy transfer from a long-lived donor to a nearby acceptor.)

The target of assay [2] is T1, Recombinant human PKC-theta (His-tagged 362-706) (Homo sapiens, UniProt Q04759).
T1 construct: Recombinant human PKC-theta (His-tagged 362-706); His
In words: PKC-theta inhibition assay (HTRF KinEASE kit). The assay is classed as biochemical. As to conditions: STK substrate 525 nM. A digest of the protocol: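 IC50 values were from 4-parameter logistic fits of percent inhibition, based on acceptor/donor HTRF ratios over 10 semi-log compound doses. Kinase reactions, started with substrate plus ATP, ran 30 min at 25 °C in buffer supplemented with 10 mM MgCl2, 1 mM DTT and 0.1% Tween 20; detection lasted 2 h.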

Assay [3] has as its target T2, Recombinant human PKC-delta (His-tagged 345-676) (Homo sapiens, UniProt Q05655).
T2 construct: PKC-delta (His-tagged 345-676); His
In words: PKC-delta inhibition assay (HTRF KinEASE kit). Format: biochemical. The following applies: ratio, PKC-theta vs PKC-delta HTRF; for PKC-theta/PKC-delta selectivity (binned): binned A to G.

Setting [4] is: binned A to G, read-out: PKC-theta IL2 pIC50 (binned) (converted).
Setting [5] is: read-out: PKC-theta IL2 pIC50 (converted).
Setting [6] is: ATP 6.5 μM, binned A to H, read-out: PKC-theta HTRF pIC50 (binned) (converted).
Setting [7] is: ATP 6.5 μM, read-out: PKC-theta HTRF pIC50 (converted).

Results on nine compounds are retold here after patent US20260035367A1 (Celgene Corporation, priority 2021, published 2026).

Counter-ions that a name gives are not always drawn. Like-named read-outs stand apart in the source and are kept apart here.

T2 sequence (Q05655 345-676): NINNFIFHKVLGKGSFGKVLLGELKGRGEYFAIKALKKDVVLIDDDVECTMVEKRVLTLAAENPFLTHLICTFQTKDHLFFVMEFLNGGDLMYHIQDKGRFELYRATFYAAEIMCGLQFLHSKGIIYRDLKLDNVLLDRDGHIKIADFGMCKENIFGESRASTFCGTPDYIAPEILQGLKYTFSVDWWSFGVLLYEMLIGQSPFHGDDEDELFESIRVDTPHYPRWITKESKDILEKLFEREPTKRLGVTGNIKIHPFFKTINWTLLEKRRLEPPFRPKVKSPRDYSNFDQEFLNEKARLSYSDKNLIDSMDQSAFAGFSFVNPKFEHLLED
T1 sequence (Q04759 362-706): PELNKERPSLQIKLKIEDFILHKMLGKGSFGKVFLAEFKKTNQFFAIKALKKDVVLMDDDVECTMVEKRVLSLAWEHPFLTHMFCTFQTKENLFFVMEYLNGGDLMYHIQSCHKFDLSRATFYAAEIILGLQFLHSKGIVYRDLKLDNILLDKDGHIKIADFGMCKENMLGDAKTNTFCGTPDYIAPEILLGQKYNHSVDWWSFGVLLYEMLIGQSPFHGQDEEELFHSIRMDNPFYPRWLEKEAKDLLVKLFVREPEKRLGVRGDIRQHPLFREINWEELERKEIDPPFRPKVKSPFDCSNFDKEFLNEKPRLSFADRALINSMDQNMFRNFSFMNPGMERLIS

In the case of `CC1(C)C(=O)Nc2nccc(-c3cc(F)cc(CN4CCNCC4)c3)c21` [Example 32, 4-[3-fluoro-5-(piperazin-1-ylmethyl)phenyl]-3,3-dimethyl-1H-pyrrolo[2,3-b]pyridin-2-one; dihydrochloride], the IC50 was more than 1000 nM in assay [1] (setting [4]); 3980 nM in assay [1] (setting [5]); 100 to 316 nM in assay [2] (PKC-theta HTRF pIC50 (binned), ATP 6.5 μM, binned A to H); 200 nM in assay [2] (PKC-theta HTRF pIC50, ATP 6.5 μM). Besides, the PKC-theta/PKC-delta selectivity in assay [3] was determined as 3. Further, the “PKC-theta/PKC-delta selectivity (binned)” value in assay [3] is “F (a ratio of between 1 and 5)”.
In the case of `C[C@@H]1CNCCN1c1cc(F)cc(-c2ccnc3c2C(C)(O)C(=O)N3)c1` (some centres unmarked) [Example 59], the IC50 in assay [1] (setting [4]) was 100 to 316 nM; in assay [1] (setting [5]), 126 nM; in assay [2] (setting [6]), 3.16 to 10 nM; in assay [2] (setting [7]), 5.01 nM. In addition, the PKC-theta/PKC-delta selectivity in assay [3] stood at 5. Besides, in assay [3], the “PKC-theta/PKC-delta selectivity (binned)” value is “F (a ratio of between 1 and 5)”.
In the case of `C[C@@]1(O)C(=O)Nc2nccc(-c3cc(F)cc(N4CCNCC4)c3)c21` (single isomer, unassigned) [Example 63], the IC50 was more than 1000 nM in assay [1] (setting [4]), 10000 nM in assay [1] (setting [5]), 316 to 1000 nM in assay [2] (setting [6]) and 1000 nM in assay [2] (setting [7]). Also, the “PKC-theta/PKC-delta selectivity (binned)” value in assay [3] is given as “G (a ratio of 0 to 1)”.
`C[C@@]1(O)C(=O)Nc2nccc(-c3cc(C(F)(F)F)cc(N4CC[C@H]5OCCN[C@@H]5C4)n3)c21` (single isomer, unassigned) [Example 97]: the IC50 is more than 1000 nM in assay [1] (setting [4]), 3980 nM in assay [1] (setting [5]), 100 to 316 nM in assay [2] (setting [6]) and 158 nM in assay [2] (setting [7]). In addition, in assay [3], the PKC-theta/PKC-delta selectivity is given as 21. Further, the “PKC-theta/PKC-delta selectivity (binned)” value in assay [3] is “C (a ratio of between 20 and 30)”.
With `CC1(O)C(=O)Nc2nccc(-c3cc(Cl)cc(N4CCNCC4)c3)c21` (centres unmarked) [Example 55], the IC50 in assay [1] (setting [4]) was 316 to 1000 nM; in assay [1] (setting [5]), 398 nM; in assay [2] (setting [6]), 10 to 31.6 nM; in assay [2] (setting [7]), 10 nM. In addition, the PKC-theta/PKC-delta selectivity in assay [3] is reported as 9. For the same compound, the “PKC-theta/PKC-delta selectivity (binned)” value in assay [3] was “E (a ratio of between 5 and 10)”.
For `CC1(C)C(=O)Nc2nccc(-c3cccc(N(CC4COC4)C4CCNCC4)c3)c21` [Example 41], the IC50 is more than 1000 nM in assay [1] (setting [4]), 2000 nM in assay [1] (setting [5]), 31.6 to 100 nM in assay [2] (setting [6]) and 79.4 nM in assay [2] (setting [7]). The PKC-theta/PKC-delta selectivity in assay [3] stood at 3. In assay [3], the “PKC-theta/PKC-delta selectivity (binned)” value was “F (a ratio of between 1 and 5)”.
For the compound `C[C@H](O)[C@@H]1CN(c2cc(C(F)(F)F)cc(-c3ccnc4c3C(C)(C)C(=O)N4)n2)CCN1` [Example 121], the IC50 in assay [1] (setting [4]) was 316 to 1000 nM; in assay [1] (setting [5]), 631 nM; in assay [2] (setting [6]) it was 10 to 31.6 nM; in assay [2] (setting [7]) it was 25.1 nM. Further, the PKC-theta/PKC-delta selectivity in assay [3] is on record as 12. For the same compound, in assay [3], the “PKC-theta/PKC-delta selectivity (binned)” value is “D (a ratio of between 10 and 20)”.
`O=c1[nH]c2nccc(-c3cc(F)cc(N4CCNCC4)c3)c2[nH]1` [Example 7]: the IC50 in assay [1] (setting [4]) is more than 1000 nM; in assay [1] (setting [5]) it was 2510 nM; in assay [2] (setting [6]) it was 100 to 316 nM; in assay [2] (setting [7]) it was 100 nM. Moreover, the PKC-theta/PKC-delta selectivity in assay [3] was 2. The “PKC-theta/PKC-delta selectivity (binned)” value in assay [3] is “F (a ratio of between 1 and 5)”.
As for `C[C@H]1CN(c2cccc(-c3ccnc4c3C(C)(C)C(=O)N4)c2)CCN1` [Example 52], the IC50 in assay [1] (setting [4]) is more than 1000 nM; in assay [1] (setting [5]) it was 1580 nM; in assay [2] (setting [6]), 100 to 316 nM; in assay [2] (setting [7]), 126 nM. Moreover, the PKC-theta/PKC-delta selectivity in assay [3] came out at 2. In assay [3], the “PKC-theta/PKC-delta selectivity (binned)” value was “F (a ratio of between 1 and 5)”.
